From ChEMBL document CHEMBL1201862, “PubChem BioAssay data set” (2004)
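96-well plates; 48 h exposure; 5 concentrations. Endpoints by linear interpolation between flanking doses. Not reached: highest tested concentration assigned. At the GI50, growth is halved.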 The source made the active and inactive calls. Cut-off read from the data, not from the text of the source: active = GI50 up to about 1.1 µM and inactive = higher.

Assays:
Assay in all cases: NCI-60 cell line screen, 48 h
HCT-116 = tested on: HCT-116
CCRF-CEM = tested on: CCRF-CEM
COLO 205 = tested on: COLO 205
NCI-H23 = tested on: NCI-H23
SK-MEL-5 = tested on: SK-MEL-5
HL-60 = tested on: HL-60
CAKI-1 = tested on: CAKI-1
UACC-257 = tested on: UACC-257
IGROV-1 = tested on: IGROV-1
HCT-15 = tested on: HCT-15
K562 = tested on: K562
MOLT-4 = tested on: MOLT-4
M14 = tested on: M14
MDA-MB-435 = tested on: MDA-MB-435
OVCAR-8 = tested on: OVCAR-8
SR = tested on: SR
PC-3 = tested on: PC-3
OVCAR-5 = tested on: OVCAR-5
UO-31 = tested on: UO-31
SF-539 = tested on: SF-539
SK-MEL-2 = tested on: SK-MEL-2
Hs-578T = tested on: Hs-578T
U-251 = tested on: U-251
BT-549 = tested on: BT-549
UACC-62 = tested on: UACC-62
OVCAR-4 = tested on: OVCAR-4
RPMI-8226 = tested on: RPMI-8226
HOP-62 = tested on: HOP-62
NCI/ADR-RES = tested on: NCI/ADR-RES
ACHN = tested on: ACHN
SK-OV-3 = tested on: SK-OV-3
LOX IMVI = tested on: LOX IMVI
KM12 = tested on: KM12
DU-145 = tested on: DU-145
Malme-3M = tested on: Malme-3M
NCI-H460 = tested on: NCI-H460
A549 = tested on: A549
MCF7 = tested on: MCF7
OVCAR-3 = tested on: OVCAR-3
HT-29 = tested on: HT-29
786-0 = tested on: 786-0
MDA-N = tested on: MDA-N
HCC 2998 = tested on: HCC 2998
SK-MEL-28 = tested on: SK-MEL-28
SNB-19 = tested on: SNB-19
SF-295 = tested on: SF-295
SF-268 = tested on: SF-268
EKVX = tested on: EKVX
NCI-H522 = tested on: NCI-H522
A498 = tested on: A498
SW-620 = tested on: SW-620
MDA-MB-231 = tested on: MDA-MB-231
SN12C = tested on: SN12C
RXF 393 = tested on: RXF 393
NCI-H226 = tested on: NCI-H226
SNB-75 = tested on: SNB-75
TK-10 = tested on: TK-10
HOP-92 = tested on: HOP-92

O=c1oc2ccc3ccccc3c2cc1-c1nnc(-c2ccc([N+](=O)[O-])cc2)[nH]1
GI50 (HCT-116): > 100 µM (inactive)
GI50 (CCRF-CEM): > 100 µM (inactive)
GI50 (COLO 205): > 100 µM (inactive)
GI50 (NCI-H23): 17.7 µM (inactive)
GI50 (SK-MEL-5): > 100 µM (inactive)
GI50 (HL-60): > 100 µM (inactive)
GI50 (CAKI-1): > 100 µM (inactive)
GI50 (UACC-257): > 100 µM (inactive)
GI50 (IGROV-1): 0.184 µM (active)
GI50 (HCT-15): > 100 µM
GI50 (K562): > 100 µM (inactive)
GI50 (MOLT-4): 71.4 µM (inactive)
GI50 (M14): > 100 µM (inactive)
GI50 (MDA-MB-435): > 100 µM (inactive)
GI50 (OVCAR-8): 21.4 µM (inactive)
GI50 (SR): > 100 µM (inactive)
GI50 (PC-3): > 100 µM (inactive)
GI50 (OVCAR-5): > 100 µM (inactive)
GI50 (UO-31): 53.1 µM (inactive)
GI50 (SF-539): 18.7 µM (inactive)
GI50 (SK-MEL-2): 44.6 µM (inactive)
GI50 (Hs-578T): 11.5 µM (inactive)
GI50 (U-251): 29.6 µM (inactive)
GI50 (BT-549): 21.3 µM (inactive)
GI50 (UACC-62): > 100 µM (inactive)
GI50 (OVCAR-4): > 100 µM (inactive)
GI50 (RPMI-8226): > 100 µM (inactive)
GI50 (HOP-62): 17.2 µM (inactive)
GI50 (NCI/ADR-RES): > 100 µM (inactive)
GI50 (ACHN): 42.2 µM (inactive)
GI50 (SK-OV-3): 23.6 µM (inactive)
GI50 (LOX IMVI): 38.8 µM (inactive)
GI50 (KM12): > 100 µM (inactive)
GI50 (DU-145): 87.3 µM (inactive)
GI50 (Malme-3M): 91.2 µM (inactive)
GI50 (NCI-H460): > 100 µM (inactive)
GI50 (A549): > 100 µM (inactive)
GI50 (MCF7): > 100 µM (inactive)
GI50 (OVCAR-3): > 100 µM (inactive)
GI50 (HT-29): > 100 µM (inactive)
GI50 (786-0): 41.1 µM (inactive)
GI50 (MDA-N): > 100 µM (inactive)
GI50 (HCC 2998): > 100 µM (inactive)
GI50 (SK-MEL-28): > 100 µM (inactive)
GI50 (SNB-19): 32.8 µM (inactive)
GI50 (SF-295): 36.6 µM (inactive)
GI50 (SF-268): 0.0807 µM (active)
GI50 (EKVX): 20.7 µM (inactive)
GI50 (NCI-H522): 92 µM (inactive)
GI50 (A498): 53.6 µM (inactive)
GI50 (SW-620): > 100 µM (inactive)

CC(O)=NC(Cc1ccc2ccccc2c1)C(O)=NC(Cc1ccc(Cl)cc1)C(O)=NC(Cc1c[nH]c2ccccc12)C(O)=NC(CO)C(O)=NC(Cc1ccc(O)cc1)C(O)=NC(CCCN=C(N)N)C(O)=NC(CC(C)C)C(O)=NC(CCCN=C(N)N)C(=O)N1CCCC1C(O)=NC(C)C(=N)O (stereo unspecified)
GI50 (CCRF-CEM): > 100 µM (inactive)
GI50 (COLO 205): 26.3 µM (inactive)
GI50 (NCI-H23): 31.3 µM (inactive)
GI50 (SK-MEL-5): 34.5 µM (inactive)
GI50 (MDA-MB-231): 59.7 µM (inactive)
GI50 (SN12C): 37.5 µM (inactive)
GI50 (HL-60): > 100 µM (inactive)
GI50 (CAKI-1): 54.7 µM (inactive)
GI50 (UACC-257): 32.4 µM (inactive)
GI50 (IGROV-1): 33.7 µM (inactive)
GI50 (RXF 393): 37.1 µM (inactive)
GI50 (HCT-15): 63 µM
GI50 (K562): > 100 µM (inactive)
GI50 (MOLT-4): > 100 µM (inactive)
GI50 (M14): 59.8 µM (inactive)
GI50 (MDA-MB-435): 40.1 µM (inactive)
GI50 (OVCAR-8): 27.1 µM (inactive)
GI50 (SR): > 100 µM (inactive)
GI50 (PC-3): 32.3 µM (inactive)
GI50 (OVCAR-5): 41.3 µM (inactive)
GI50 (UO-31): 26 µM (inactive)
GI50 (SF-539): 36.6 µM (inactive)
GI50 (SK-MEL-2): 13.4 µM (inactive)
GI50 (Hs-578T): 47.4 µM (inactive)
GI50 (U-251): 31.6 µM (inactive)
GI50 (BT-549): 12.1 µM (inactive)
GI50 (UACC-62): 45.6 µM (inactive)
GI50 (OVCAR-4): 74 µM (inactive)
GI50 (NCI-H226): 30.1 µM (inactive)
GI50 (RPMI-8226): > 100 µM (inactive)
GI50 (HOP-62): 85.7 µM (inactive)
GI50 (NCI/ADR-RES): 60.3 µM (inactive)
GI50 (ACHN): 15 µM (inactive)
GI50 (SK-OV-3): 43.5 µM (inactive)
GI50 (SNB-75): 38.1 µM (inactive)
GI50 (KM12): 41.1 µM (inactive)
GI50 (DU-145): 26.5 µM (inactive)
GI50 (TK-10): 30.9 µM (inactive)
GI50 (Malme-3M): 99.5 µM (inactive)
GI50 (NCI-H460): 54.7 µM (inactive)
GI50 (A549): 42.6 µM (inactive)
GI50 (MCF7): 43.8 µM (inactive)
GI50 (OVCAR-3): > 100 µM (inactive)
GI50 (HT-29): 35.5 µM (inactive)
GI50 (786-0): 35.8 µM (inactive)
GI50 (MDA-N): 30.4 µM (inactive)
GI50 (HCC 2998): 63.4 µM (inactive)
GI50 (SNB-19): 48.9 µM (inactive)
GI50 (SF-295): 27.9 µM (inactive)
GI50 (SF-268): > 100 µM (inactive)
GI50 (EKVX): 39.5 µM (inactive)
GI50 (NCI-H522): 45.9 µM (inactive)
GI50 (A498): 37.6 µM (inactive)
GI50 (HOP-92): 35.5 µM (inactive)
GI50 (SW-620): 76.7 µM (inactive)
